Measured values: PMC12751012, “Nanoscale Direct-to-Biology Optimization and Structural Insights into Selective S. aureus TrmD Inhibitors” (Journal of Medicinal Chemistry, 2025)
Read-outs that look alike come from different tables or passages of the source.

Experiments:
E. coli TrmD = target: T1, E. coli TrmD (Escherichia coli, UniProt P0A873); experiment: Fluorescence polarization (FP) assay, tracer 3 (Cy5TPD), E. coli TrmD; assay type: binding
T1 construct: made in house; host or cells: E. coli (the strain received with the pCA24N plasmid)
T1 sequence (P0A873 whole entry): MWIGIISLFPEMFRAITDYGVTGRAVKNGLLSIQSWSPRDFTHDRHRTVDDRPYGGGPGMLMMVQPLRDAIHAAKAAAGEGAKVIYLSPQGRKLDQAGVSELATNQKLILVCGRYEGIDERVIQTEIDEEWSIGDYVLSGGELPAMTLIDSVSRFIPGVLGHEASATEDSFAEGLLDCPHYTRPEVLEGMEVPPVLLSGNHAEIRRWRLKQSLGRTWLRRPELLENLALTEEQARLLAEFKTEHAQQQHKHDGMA
Protocol: Fluorescence polarization (FP) assays were performed as follows. The assays for H. influenzae TrmD have been described previously. All assays were conducted in technical triplicate using black 96-well half area plates. For the FP assays, a tracer (20 nM Cy5TPD for E. coli and H. influenzae TrmD, 10 nM tracer 4 for S. aureus TrmD) was mixed with the respective enzyme (2 μM E. coli TrmD, 2 μM H. influenzae TrmD, 500 nM S. aureus TrmD) in buffer (E. coli and H. influenzae TrmD: 50 mM HEPES, 500 mM NaCl, 5% Glycerol, pH 7.5, S. aureus TrmD: 40 mM Tris HCl, 100 mM NaCl, 10 mM MgCl2, 5% Glycerol, pH 7.5). The compounds were added in varying concentrations for K D-value determination. For K D-value determination of tracers, the enzyme concentration was varied, and no inhibitory compounds were added (DMSO < 0.5% for TrmDs). The Z-factor for tracer 4 was determined by measuring 48 replicates of the free tracer (positive controls, PC) and 48 replicates of a mixture of enzyme and tracer (negative controls, NC). The Z-factor is defined in terms of the means (μ) and standard deviations (σ) of the positive and negative controls and calculated as Z = 1–(3*(σnc + σpc)/(μnc–μpc)). Fluorescence polarization was measured using a Spark 10 M plate reader (Tecan) equipped with polarization filters and a monochromator setup (λex = 635 nm, λem = 680 nm). Polarization values (mP) were determined from polarization-specific parallel and orthogonal fluorescence intensities. K D-values were calculated in GraphPad Prism 8.0.1 using the four-parameter Hill equation: y(% tracer bound) = bottom + ([ligand]-slope) × (top–bottom)/([ligand]-slope + K Dslope).

[1] = Cell Titer Glo cell viability assay; assay type: cell-based, human; details: human, HEK293 cells
Protocol: (§1) Cell viability assays were conducted with HEK293 cells (ATCC) to investigate the compounds’ mammalian cytotoxicity. Cells were cultured according to standard protocols (DMEM, 10% FBS, 1× Penicillin/Streptomycin, 37 °C, 5% CO2). Cell viability was assessed using the Promega CellTiterGlo assay kit. Briefly, 1000 cells were seeded in white half a rea 96-well plates (Greiner) and incubated for 48 h with inhibitors from DMSO stocks (final: 0.1% DMSO) under standard cultivation conditions. Then, the cell titer reagent was added to each well according to the manufacturer’s protocols, and luminescence was measured using a Tecan Spark 10 M plate reader.

HEK293 cells = experiment: Cell Titer Glo cell viability assay; assay type: cell-based, human; details: 48 h
Protocol: as §1

S. aureus TrmD = target: T2, S. aureus TrmD (Staphylococcus aureus, UniProt Q2FZ43); experiment: Aptamer-based MTase enzyme inhibition assay; assay type: biochemical
T2 construct: made in house; host or cells: E. coli BL21
T2 sequence (Q2FZ43 1-245): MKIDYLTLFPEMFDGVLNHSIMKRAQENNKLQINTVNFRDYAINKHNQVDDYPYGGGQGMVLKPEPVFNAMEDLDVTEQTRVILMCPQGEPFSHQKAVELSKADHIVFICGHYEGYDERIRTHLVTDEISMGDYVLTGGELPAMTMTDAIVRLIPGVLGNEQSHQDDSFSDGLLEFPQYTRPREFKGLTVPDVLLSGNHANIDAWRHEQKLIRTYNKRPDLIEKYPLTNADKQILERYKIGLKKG
Protocol: For the determination of S. aureus TrmD IC50-values, a split aptamer assay according to Nidoieva et al. was employed. The assay was performed in 40 mM Tris HCl, 100 mM NaCl, 10 mM MgCl2, 5% Glycerol, pH 7.5. Enzyme reaction mixtures contained synthetic tRNA^LeuCAG substrate (synthetic tRNA^Leu: 5′-[…]-3′, Genscript, final concentration: 2 μM), S. aureus TrmD (final concentration: 100 nM), SAM (New England Biolabs, final concentration: 2 μM), and the test compounds in varying concentrations (3% DMSO, final volume 10 μL). Pure DMSO was used as a mock treatment reaction control. The assay was carried out in triplicate in black 384-well plates (Greiner). Enzyme reactions were quenched by the addition of 1 μL SDS (3%) after an incubation time of 60 min at room temperature.

[2] = aptamer-based enzyme assay, read-out: IC50 S. aureus TrmD

**Q.** With N#Cc1cccc(Cn2cc(-c3c[nH]c4nc[nH]c(=O)c34)nn2)c1 [Compound 8b, 3-((4-(4-Oxo-4,7-dihydro-3H-pyrrolo[2,3-d]pyrimidin-5-yl)-1H-1,2,3-triazol-1-yl)methyl)benzonitrile] as the molecule, how does the Kd (E. coli TrmD) read?
**A.** Its Kd is greater than 30 µM.

**Q.** And the CC50 at 48 h [1]?
**A.** The CC50 at 48 h was greater than 100 µM.

**Q.** And the “mammalian cytotoxicity HEK293” value (HEK293 cells; at 100 μM)?
**A.** Its value is “Slight cytotoxic effects”.

**Q.** What about the IC50 (S. aureus TrmD; [2]) of the same molecule?
**A.** Its IC50 is 3220 ± 1800 nM.

**Q.** What does the source list for O=c1[nH]cnc2[nH]cc(-c3cn(CC4CCC5C(CC4)C5(F)F)nn3)c12 (stereo not drawn) [Compound 8c, 5-(1-((8,8-Difluorobicyclo[5.1.0]octan-4-yl)methyl)-1H-1,2,3-triazol-4-yl)-3,7-dihydro-4H-pyrrolo[2,3-d]pyrimidin-4-one]?
**A.** Kd (E. coli TrmD): > 30 µM; CC50 at 48 h [1]: > 100 µM; mammalian cytotoxicity HEK293 (HEK293 cells; at 100 μM): Slight cytotoxic effects; IC50 (S. aureus TrmD; [2]): 710 ± 100 nM

**Q.** Which Kd (E. coli TrmD) does the source give for O=c1[nH]cnc2[nH]cc(-c3cn(Cc4ccc5ncccc5c4)nn3)c12 [Compound 8d, 5-(1-(Quinolin-6-ylmethyl)-1H-1,2,3-triazol-4-yl)-3,7-dihydro-4H-pyrrolo[2,3-d]pyrimidin-4-one] here?
**A.** Its Kd is greater than 30 µM.

**Q.** What about the CC50 at 48 h [1] of the same molecule?
**A.** The CC50 at 48 h was greater than 100 µM.

**Q.** What about the IC50 (S. aureus TrmD; [2]) of the same molecule?
**A.** Its IC50 is 390 ± 70 nM.

**Q.** Which results are given for N[C@@H]1CCC[C@@H]1Cn1cc(-c2c[nH]c3nc[nH]c(=O)c23)nn1 [Compound 8e, 5-(1-(((1R,2R)-2-Aminocyclopentyl)methyl)-1H-1,2,3-triazol-4-yl)-3,7-dihydro-4H-pyrrolo[2,3-d]pyrimidin-4-one]?
**A.** Kd (E. coli TrmD): > 30 µM; CC50 at 48 h [1]: > 100 µM; mammalian cytotoxicity HEK293 (HEK293 cells; at >10 μM): Slight cytotoxic effects; IC50 (S. aureus TrmD; [2]): 480 ± 60 nM

**Q.** Which results are given for NC(N)=NCCn1cc(-c2c[nH]c3nc[nH]c(=O)c23)nn1 [Compound 8h]?
**A.** Kd (E. coli TrmD): > 30 µM; cell viability / mammalian cytotoxicity HEK293 (HEK293 cells; up to 100 μM): no mammalian cytotoxicity; IC50 (S. aureus TrmD): 1160 ± 120 nM
